In ChEMBL document CHEMBL5537162, “Development of Antibacterial Peptides with Membrane Disruption and Folate Pathway Inhibitory Activities against Methicillin-Resistant Staphylococcus aureus” (J Med Chem, 2024):
Calls of active or inactive are those of the source. The rule behind the calls is not given here.

Columns and labels:
Staphylococcus aureus [1] = experiment: Antibacterial activity against methicillin-resistant Staphylococcus aureus assessed as bacterial growth inhibition incubated for 24 hrs by CLSI based micro-broth dilution assay; type: functional
[2] = (§1) Hemolytic activity in mouse RBC assessed as hemolysis incubated for 1 hrs by spectrophotometric analysis; type: toxicity, cell-based, Erythrocyte; conditions: mouse red blood cells (erythrocytes)
Erythrocyte = experiment: as §1; type: toxicity, cell-based; conditions: erythrocyte, 1 h
[3] = Antiproliferative activity against HEK293T cells assessed as reduction in cell viability measured for 48 hrs by MTT assay; type: toxicity, cell-based, HEK-293T; conditions: human
Staphylococcus aureus [4] = experiment: Antibacterial activity against methicillin-resistant Staphylococcus aureus 18908 assessed as bacterial growth inhibition incubated for 24 hrs by CLSI based micro-broth dilution assay; type: functional
Staphylococcus aureus [5] = experiment: Antibacterial activity against methicillin-resistant Staphylococcus aureus 18466 assessed as bacterial growth inhibition incubated for 24 hrs by CLSI based micro-broth dilution assay; type: functional
Staphylococcus aureus [6] = experiment: Antibacterial activity against methicillin-resistant Staphylococcus aureus 18475 assessed as bacterial growth inhibition incubated for 24 hrs by CLSI based micro-broth dilution assay; type: functional
Staphylococcus aureus [7] = experiment: Antibacterial activity against methicillin-resistant Staphylococcus aureus 18567 assessed as bacterial growth inhibition incubated for 24 hrs by CLSI based micro-broth dilution assay; type: functional
Staphylococcus aureus [8] = experiment: Antibacterial activity against methicillin-resistant Staphylococcus aureus 18858 assessed as bacterial growth inhibition incubated for 24 hrs by CLSI based micro-broth dilution assay; type: functional
Staphylococcus aureus [9] = experiment: Antibacterial activity against methicillin-resistant Staphylococcus aureus 19047 assessed as bacterial growth inhibition incubated for 24 hrs by CLSI based micro-broth dilution assay; type: functional
Staphylococcus aureus [10] = experiment: Antibacterial activity against methicillin-resistant Staphylococcus aureus 19498 assessed as bacterial growth inhibition incubated for 24 hrs by CLSI based micro-broth dilution assay; type: functional
Staphylococcus aureus [11] = experiment: Antibacterial activity against methicillin-resistant Staphylococcus aureus 19423 assessed as bacterial growth inhibition incubated for 24 hrs by CLSI based micro-broth dilution assay; type: functional
Staphylococcus aureus [12] = experiment: Antibacterial activity against Staphylococcus aureus 25923 assessed as bacterial growth inhibition incubated for 24 hrs by CLSI based micro-broth dilution assay; type: functional
Staphylococcus aureus [13] = experiment: Antibacterial activity against Staphylococcus aureus 29213 assessed as bacterial growth inhibition incubated for 24 hrs by CLSI based micro-broth dilution assay; type: functional
Staphylococcus aureus [14] = experiment: Antibacterial activity against Staphylococcus aureus 6538 assessed as bacterial growth inhibition incubated for 24 hrs by CLSI based micro-broth dilution assay; type: functional
Staphylococcus aureus [15] = experiment: Antibacterial activity against Staphylococcus aureus 8325.4 assessed as bacterial growth inhibition incubated for 24 hrs by CLSI based micro-broth dilution assay; type: functional
Pseudomonas aeruginosa = experiment: Antibacterial activity against Pseudomonas aeruginosa assessed as bacterial growth inhibition incubated for 24 hrs by CLSI based micro-broth dilution assay; type: functional
Candida albicans = experiment: Antifungal activity against Candida albicans assessed as inhibition of fungal growth; type: functional
Staphylococcus aureus [16] = experiment: Drug resistance, ratio of MIC for methicillin-resistant Staphylococcus aureus after 3 days exposure to MIC for methicillin-resistant Staphylococcus aureus during first exposure; type: functional; conditions: time 3 day
Staphylococcus aureus [17] = experiment: Antibacterial activity against methicillin-resistant Staphylococcus aureus assessed as fold reduction in viable bacteria at 8 times MIC measured at 3 to 6 hrs by time-kill assay; type: functional, organism-based; conditions: time 3-6 hrs
[18] = Stability in methicillin-resistant Staphylococcus aureus supernatants measured for 24 hrs by RP-HPLC analysis; type: physicochemical
[19] = Stability in mouse blood plasma measured for 12 hrs by RP-HPLC analysis; type: ADME, cell-free; conditions: read-out: Stability
Staphylococcus aureus [20] = experiment: Antibacterial activity against methicillin-resistant Staphylococcus aureus assessed as fold reduction in viable bacteria at 1 to 8 times MIC measured at 3 hr by time-kill assay; type: functional
Staphylococcus aureus [21] = experiment: Antibacterial activity against methicillin-resistant Staphylococcus aureus assessed as reduction in viable bacteria at 1 to 8 times MIC measured at 1 hr by time-kill assay; type: functional, organism-based
Cell membrane = experiment: Disruption of membrane integrity in methicillin-resistant Staphylococcus aureus measured for 6 hrs by scanning electron microscopic analysis; type: cell membranes
[22] = molecular target: T1, Monofunctional C1-tetrahydrofolate synthase, mitochondrial (Homo sapiens, UniProt Q6UB35); experiment: Binding affinity to FTHFS (unknown origin) expressed in Escherichia coli BL21 (DE3) using IPTG as […] assessed as dissociation constant by MST assay
T1 sequence (Q6UB35 whole entry): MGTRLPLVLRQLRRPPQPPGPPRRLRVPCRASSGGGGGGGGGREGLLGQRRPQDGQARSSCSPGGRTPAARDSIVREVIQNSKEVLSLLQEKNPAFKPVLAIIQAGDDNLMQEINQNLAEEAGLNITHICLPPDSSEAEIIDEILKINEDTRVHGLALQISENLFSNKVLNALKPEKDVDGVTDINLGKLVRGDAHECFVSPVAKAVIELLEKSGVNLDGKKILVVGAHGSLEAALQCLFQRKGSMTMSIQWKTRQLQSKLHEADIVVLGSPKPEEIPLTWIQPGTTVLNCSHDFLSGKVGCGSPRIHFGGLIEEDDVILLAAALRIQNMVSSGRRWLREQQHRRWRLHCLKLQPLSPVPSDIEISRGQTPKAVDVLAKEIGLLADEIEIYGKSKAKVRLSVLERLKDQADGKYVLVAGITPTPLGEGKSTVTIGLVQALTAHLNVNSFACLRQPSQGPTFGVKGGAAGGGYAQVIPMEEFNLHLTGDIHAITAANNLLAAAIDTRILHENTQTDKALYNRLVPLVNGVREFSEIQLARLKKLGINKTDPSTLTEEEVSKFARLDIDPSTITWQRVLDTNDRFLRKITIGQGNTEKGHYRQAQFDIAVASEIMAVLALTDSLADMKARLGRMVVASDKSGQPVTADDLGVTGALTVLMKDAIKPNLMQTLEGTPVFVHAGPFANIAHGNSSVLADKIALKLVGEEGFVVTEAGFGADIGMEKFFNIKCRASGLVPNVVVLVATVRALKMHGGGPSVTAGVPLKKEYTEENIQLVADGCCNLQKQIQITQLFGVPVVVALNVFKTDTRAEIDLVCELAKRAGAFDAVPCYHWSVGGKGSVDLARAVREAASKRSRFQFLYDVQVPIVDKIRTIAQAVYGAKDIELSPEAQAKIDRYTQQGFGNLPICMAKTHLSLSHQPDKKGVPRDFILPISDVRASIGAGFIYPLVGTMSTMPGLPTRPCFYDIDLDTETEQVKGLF

[23] = molecular target: T2, Monofunctional C1-tetrahydrofolate synthase, mitochondrial (Homo sapiens) (UniProt Q6UB35); experiment: Inhibition of FTHFS (unknown origin) expressed in Escherichia coli BL21 (DE3) incubated for 10 mins by UV-spectrophotometer analysis
T2 sequence (whole entry): T1 sequence (Q6UB35 whole entry)

Staphylococcus aureus [24] = experiment: Antibacterial activity against Staphylococcus aureus assessed as reduction in bacterial growth in presence of PABA; type: functional, organism-based
Staphylococcus aureus [25] = experiment: Antibacterial activity against Methicillin-resistant Staphylococcus aureus infected in ICR mouse skin infection model assessed as reduction in skin abscess volume at 40 mg/kg, sc measured upto 10 days; type: functional, organism-based; conditions: time <= 10.0 day
Staphylococcus aureus [26] = experiment: Antibacterial activity against Methicillin-resistant Staphylococcus aureus infected in ICR mouse skin infection model assessed as reduction in bacterial content at 40 mg/kg, sc measured upto 10 days; type: functional, organism-based; conditions: time <= 10.0 day

## H-LARVARRVIRFIRRAW-NH2
Staphylococcus aureus [1]
  MIC: 3 µM
[2]
  HC50 at 1 h: > 320 µM
Erythrocyte
  HC10: > 320 µM
[3]
  IC50 at 48 h: > 320 µM
Staphylococcus aureus [4]
  MIC: 3 µM
Staphylococcus aureus [5]
  MIC: 6 µM
Staphylococcus aureus [6]
  MIC: 6 µM
Staphylococcus aureus [7]
  MIC: 3 µM
Staphylococcus aureus [8]
  MIC: 3 µM
Staphylococcus aureus [9]
  MIC: 3 µM
Staphylococcus aureus [10]
  MIC: 6 µM
Staphylococcus aureus [11]
  MIC: 6 µM
Staphylococcus aureus [12]
  MIC: 3 µM
Staphylococcus aureus [13]
  MIC: 3 µM
Staphylococcus aureus [14]
  MIC: 3 µM
Staphylococcus aureus [15]
  MIC: 3 µM
Pseudomonas aeruginosa
  MIC: > 48 µM
Candida albicans
  MIC: 3 µM
Staphylococcus aureus [16]
  Ratio: 50
Staphylococcus aureus [17]
  Activity: Active
[18]
  Stability: Stable
[19]
  remaining at 12 h: 20%
Staphylococcus aureus [20]
  fold change (FC): ~300
Staphylococcus aureus [21]
  Activity: Active
Cell membrane
  Activity: Active
[22]
  Kd: 2.24 µM
[23]
  inhibition: Active
Staphylococcus aureus [24]
  Activity: Active
Staphylococcus aureus [25]
  Activity: Active
Staphylococcus aureus [26]
  Activity: Active

## H-RRRLARRLIFFIRRAW-NH2
Staphylococcus aureus [1]
  MIC: 3 µM
[2]
  HC50 at 1 h: > 320 µM
Erythrocyte
  HC10: > 320 µM
[3]
  IC50 at 48 h: > 320 µM
Staphylococcus aureus [4]
  MIC: 3 µM
Staphylococcus aureus [5]
  MIC: 6 µM
Staphylococcus aureus [6]
  MIC: 6 µM
Staphylococcus aureus [7]
  MIC: 6 µM
Staphylococcus aureus [8]
  MIC: 3 µM
Staphylococcus aureus [9]
  MIC: 6 µM
Staphylococcus aureus [10]
  MIC: 3 µM
Staphylococcus aureus [11]
  MIC: 6 µM
Staphylococcus aureus [12]
  MIC: 3 µM
Staphylococcus aureus [13]
  MIC: 3 µM
Staphylococcus aureus [14]
  MIC: 3 µM
Staphylococcus aureus [15]
  MIC: 3 µM
Pseudomonas aeruginosa
  MIC: > 48 µM
Candida albicans
  MIC: 3 µM
Staphylococcus aureus [16]
  Ratio: 50
Staphylococcus aureus [17]
  Activity: Active
[18]
  Stability: Stable
[19]
  remaining at 12 h: 20%
Staphylococcus aureus [20]
  fold change (FC): ~300
Staphylococcus aureus [21]
  Activity: Active
Cell membrane
  Activity: Active
[22]
  Kd: 3.68 µM
[23]
  inhibition: Active
Staphylococcus aureus [24]
  Activity: Active
Staphylococcus aureus [25]
  Activity: Active
Staphylococcus aureus [26]
  Activity: Active
